The results in this text go back to US20240166639A1, “POTENT AND SELECTIVE COMPOUNDS AS SEROTONIN 1B RECEPTOR MODULATORS” (LEUKOS BIOTECH, S.L., priority 2020, published 2024).

The subject of data set [1] is peripheral blood-mononuclear blood cells. Nature of the data set: Healthy blood cells viability assay. It is filed as cell-based. As to conditions: 48 h treatment, read-out: EC50 (uM), cytotoxic capacity on healthy cells. Here is the method:
0.5×10^6 peripheral blood-mononuclear blood cells per mL were cultured in completed RPM medium, supplemented with 10% FBS. Compounds were added to the medium at 0.5/1/5/10/50 μM, while controls were treated with equivalent concentration of vehicle (DMSO). Upon 48 h treatment, cells were stained with the live-dead discrimination dye 7-AAD and Hoechst 33342, the pan-hernatopoietic surface marker CD45, and acquired in a flow cytometer, with a volumetric counting. Live cells were discriminated based on a discrete FSC-SSC profile, 7-AAD negativity, dim positivity to Hoechst 33342 and CD45 positivity. EC50 was calculated with the Prism GraphPad software.

Another data set concerns the target human 5-HT1B receptor (Homo sapiens (Human), UniProt P28222). Nature of the data set: Competition binding in human 5-HT1B receptor. As to conditions: [3H]-GR125743, Hela-5-HT1B membranes; read-out: h5-HT1B Ki. Here is the method:
Serotonin 5-HT1B receptor competition binding experiments were carried out in a polypropylene 96-well plate. In each well was incubated 5 μg of membranes from Hela-5-HT1B cell line prepared in the laboratory (Lot: A001/14-11-2011, protein concentration=3179 μg/ml), 1.5 nM [^3H]-GR125743 ([…], 0.1 mCi/ml, Perkin Elmer NET1172100UC) and compounds studied and standard. Non-specific binding was determined in the presence of GR55562 10 μM (TOCRIS 1054). The reaction mixture (Vt: 250 μl/well) was incubated at 25° C. for 90 min, 200 μL was transfered to GF/C 96-well plate (Millipore, Madrid, Spain) pretreated with 0.5% of PEI and treated with binding buffer (Tris-HCl 50 mM, EDTA 1 mM, MgCl2 10 mM, pH=7.4), after was filtered and washed four times with 250 μl wash buffer (Tris-HCl 50 mM, pH=7.4), before measuring in a microplate beta scintillation counter (Microbeta Trilux, PerkinElmer, Madrid, Spain). […] From the IC50 the Ki is calculated according to the following formula: […]
(§1) Being: • IC50: inhibitory concentration, • D: real concentration of radioligand and • Kd: dissociation constant (affinity of radioligand to the receptor).

For a further data set, the system named is HL-60. As to the kind of experiment: Cell viability assay, AML cell line HL-60. It counts as cell-based. The conditions noted are these: 48 h treatment, live cells by flow cytometry. Here is the method: (§2) 0.15×10^6 AML cell lines (HL-60 or MonoMac-1) per mL were cultured in completed RPMI medium, supplemented with 10% Fetal bovine serum (FBS). Compounds were added to the medium at the concentration indicated (0.1, 1 and 10 μM), while controls were treated with equivalent concentration of vehicle (DMSO). Primary validation screenings were analyzed after 72 h of treatment, EC50 was determined upon 48 h treatments. Cells were stained with the live-dead discrimination dye 7-aminoactinomycin D (7-AAD) and Hoechst 33342 and acquired in a flow cytometer, with a volumetric counting. Live cells were discriminated based on a discrete FSC-SSC profile, 7-AAD negativity and dim positivity to Hoechst 33342. EC50 was calculated with the Prism GraphPad software.

The target in the next data set is human 5-HT2A receptor (Homo sapiens (Human), UniProt P28223). Nature of the data set: Competition binding in human 5-HT2A receptor. As to conditions: [3H]-Ketanserin, CHO-5-HT2A membranes; read-out: h5-HT2A Ki. Here is the method: Serotonin 5-HT2A receptor competition binding experiments were carried out in a polypropilene 96-well plate. In each well was incubated 80 μg of membranes from CHO-5-HT2A cell line prepared in the laboratory (protein concentration=4337 μg/ml), 1 nM [^3H]-Ketanserin (47.3 Ci/mmol, 1 mCi/ml, Perkin Elmer NET791250UC) and compounds studied and standard. Non-specific binding was determined in the presence of Methysergide 1 μM (Sigma M137). The reaction mixture (Vt: 250 μl/well) was incubated at 37° C. for 30 min, 200 μL was transfered to GF/B 96-well plate (Millipore, Madrid, Spain) pretreated with 0.5% of PEI and treated with binding buffer (Tris-HCl 50 mM, pH=7.4), after was filtered and washed six times with 250 μl wash buffer (Tris-HCl 50 mM, pH=6.6), before measuring in a microplate beta scintillation counter (Microbeta Trilux, PerkinElmer, Madrid, Spain).
The raw radioactivity data is adjusted to a logistic regression of 4 parameters using GraphPad Prism software, from the specific junction the value of IC50 is obtained. From the IC50 the Ki is calculated according to the following formula: […]
as §1

Another data set deals with MonoMac-1. Nature of the data set: Cell viability assay, AML cell line MonoMac-1. It counts as cell-based. As to conditions: 48 h treatment, live cells by flow cytometry. Here is the method:
as §2
(In general: Flow cytometry measures light scatter and fluorescence of single cells or particles in a stream.)

SMILES strings stand for the structures. Where a name gives a salt, the structure may show the parent alone.

Chain of human 5-HT1B receptor (P28222 whole entry): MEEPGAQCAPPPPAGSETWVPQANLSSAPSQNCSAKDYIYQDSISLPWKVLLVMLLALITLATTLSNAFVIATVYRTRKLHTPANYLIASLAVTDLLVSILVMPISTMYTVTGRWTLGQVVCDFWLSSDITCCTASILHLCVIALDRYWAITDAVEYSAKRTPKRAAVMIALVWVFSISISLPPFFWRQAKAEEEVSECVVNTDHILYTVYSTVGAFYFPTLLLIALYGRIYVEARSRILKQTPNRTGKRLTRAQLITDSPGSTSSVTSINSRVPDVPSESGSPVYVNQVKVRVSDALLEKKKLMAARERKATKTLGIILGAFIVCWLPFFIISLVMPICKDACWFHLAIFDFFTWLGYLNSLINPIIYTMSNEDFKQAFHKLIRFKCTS
Chain of human 5-HT2A receptor (P28223 whole entry): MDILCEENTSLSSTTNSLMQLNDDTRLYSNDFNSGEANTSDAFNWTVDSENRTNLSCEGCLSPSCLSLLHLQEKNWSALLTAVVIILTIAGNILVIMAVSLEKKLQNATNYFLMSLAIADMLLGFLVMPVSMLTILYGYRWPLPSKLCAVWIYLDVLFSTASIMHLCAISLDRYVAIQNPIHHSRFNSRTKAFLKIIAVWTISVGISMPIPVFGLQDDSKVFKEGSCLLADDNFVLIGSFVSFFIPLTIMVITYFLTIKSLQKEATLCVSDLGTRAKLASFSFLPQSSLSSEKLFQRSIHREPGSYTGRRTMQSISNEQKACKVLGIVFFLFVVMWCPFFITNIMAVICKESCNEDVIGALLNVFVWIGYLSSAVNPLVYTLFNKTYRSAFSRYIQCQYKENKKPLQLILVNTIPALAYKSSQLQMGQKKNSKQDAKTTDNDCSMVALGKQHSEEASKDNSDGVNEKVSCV

Consider `COc1ccc(NC(=O)c2ccc(-c3ccc(-c4noc(C)n4)cc3C)cc2)cc1OCCN(C)C` [SB41, N-[3-[3-(Dimethylamino)ethoxy]-4-methoxyphenyl]-2′-methyl-4′-(5-methyl-1,2,4-oxadiazol-3-yl)-[1,1′-biphenyl]-4-carboxamide hydrochloride, reference compound], for which the figures for the concentration for a half-maximal effect (EC50) (in data set [1]; in the data set with HL-60; in the data set with MonoMac-1) were 12.5 µM, 7320 nM and 2480 nM, respectively. Also, the Ki turned out to be 0.6 nM on human 5-HT1B receptor and 143 nM at human 5-HT2A receptor.

A word on the EC50: it is the concentration that produces a half-maximal response. The Ki is the dissociation constant of the complex between target and ligand, obtained from inhibition or displacement.
